Data: PubChem BioAssay AID1259407 (Chemical Carcinogenesis Research Information System (CCRIS), 2018)
Calls of active or inactive are those of the source. The rule behind the calls is not given here.

Tested on: CCRIS mutagenicity, Ames/micronucleus/aberration tests
Test: CCRIS mutagenicity studies
Description: The CCRIS database contains chemical records with carcinogenicity, mutagenicity, tumor promotion, and tumor inhibition test results. It was developed by the National Cancer Institute (NCI). Data are derived from studies cited in primary journals, current awareness tools, NCI reports, and other sources. Test results have been reviewed by experts in carcinogenesis and mutagenesis.
CCRIS provides historical information from the years 1985 - 2011. It is no longer updated.
This is an archive assay for CCRIS mutagenicity studies.

[1] = Test System: AMES SALMONELLA TYPHIMURIUM, Strain/Indicator: TA100, Metabolic Activation: NONE, Method: STANDARD PLATE
[2] = Test System: AMES SALMONELLA TYPHIMURIUM, Strain/Indicator: TA102, Metabolic Activation: NONE, Method: STANDARD PLATE
[3] = Test System: AMES SALMONELLA TYPHIMURIUM, Strain/Indicator: TA98, Metabolic Activation: HAMSTER, LIVER, S-9, AROCLOR 1254 (10%), Method: PREINCUBATION
[4] = Test System: AMES SALMONELLA TYPHIMURIUM, Strain/Indicator: TA98, Metabolic Activation: NONE, Method: PREINCUBATION
[5] = Test System: AMES SALMONELLA TYPHIMURIUM, Strain/Indicator: TA98, Metabolic Activation: RAT, LIVER, S-9, AROCLOR 1254 (10%), Method: PREINCUBATION
[6] = Test System: AMES SALMONELLA TYPHIMURIUM, Strain/Indicator: TA100, Metabolic Activation: HAMSTER, LIVER, S-9, AROCLOR 1254 (10%), Method: PREINCUBATION
[7] = Test System: AMES SALMONELLA TYPHIMURIUM, Strain/Indicator: TA100, Metabolic Activation: NONE, Method: PREINCUBATION
[8] = Test System: AMES SALMONELLA TYPHIMURIUM, Strain/Indicator: TA100, Metabolic Activation: RAT, LIVER, S-9, AROCLOR 1254 (10%), Method: PREINCUBATION
[9] = Test System: AMES SALMONELLA TYPHIMURIUM, Strain/Indicator: TA1535, Metabolic Activation: HAMSTER, LIVER, S-9, AROCLOR 1254 (10%), Method: PREINCUBATION
[10] = Test System: AMES SALMONELLA TYPHIMURIUM, Strain/Indicator: TA1535, Metabolic Activation: NONE, Method: PREINCUBATION
[11] = Test System: AMES SALMONELLA TYPHIMURIUM, Strain/Indicator: TA1535, Metabolic Activation: RAT, LIVER, S-9, AROCLOR 1254 (10%), Method: PREINCUBATION
[12] = Test System: AMES SALMONELLA TYPHIMURIUM, Strain/Indicator: TA1537, Metabolic Activation: NONE, Method: PREINCUBATION
[13] = Test System: AMES SALMONELLA TYPHIMURIUM, Strain/Indicator: TA98, Metabolic Activation: NONE, Method: STANDARD PLATE

Measured: mutagenic call

CC(C)COC(=O)NO
active: Test System: E. COLI, Strain/Indicator: WP2 UVRA, Metabolic Activation: NONE, Method: FLUCTUATION TEST active; positive

COO
active: [2] active; positive
inactive: [1] inactive; negative

Cc1cccc(C#N)c1
inactive: Test System: AMES SALMONELLA TYPHIMURIUM, Strain/Indicator: TA97, Metabolic Activation: HAMSTER, LIVER, S-9, AROCLOR 1254 (10%), Method: PREINCUBATION inactive; negative | Test System: AMES SALMONELLA TYPHIMURIUM, Strain/Indicator: TA97, Metabolic Activation: HAMSTER, LIVER, S-9, AROCLOR 1254 (30%), Method: PREINCUBATION inactive; negative | Test System: AMES SALMONELLA TYPHIMURIUM, Strain/Indicator: TA97, Metabolic Activation: NONE, Method: PREINCUBATION inactive; negative | Test System: AMES SALMONELLA TYPHIMURIUM, Strain/Indicator: TA97, Metabolic Activation: RAT, LIVER, S-9, AROCLOR 1254 (10%), Method: PREINCUBATION inactive; negative | Test System: AMES SALMONELLA TYPHIMURIUM, Strain/Indicator: TA97, Metabolic Activation: RAT, LIVER, S-9, AROCLOR 1254 (30%), Method: PREINCUBATION inactive; negative | [3] inactive; negative | Test System: AMES SALMONELLA TYPHIMURIUM, Strain/Indicator: TA98, Metabolic Activation: HAMSTER, LIVER, S-9, AROCLOR 1254 (30%), Method: PREINCUBATION inactive; negative | [4] inactive; negative | [5] inactive; negative | Test System: AMES SALMONELLA TYPHIMURIUM, Strain/Indicator: TA98, Metabolic Activation: RAT, LIVER, S-9, AROCLOR 1254 (30%), Method: PREINCUBATION inactive; negative | [6] inactive; negative | Test System: AMES SALMONELLA TYPHIMURIUM, Strain/Indicator: TA100, Metabolic Activation: HAMSTER, LIVER, S-9, AROCLOR 1254 (30%), Method: PREINCUBATION inactive; negative | [7] inactive; negative | [8] inactive; negative | Test System: AMES SALMONELLA TYPHIMURIUM, Strain/Indicator: TA100, Metabolic Activation: RAT, LIVER, S-9, AROCLOR 1254 (30%), Method: PREINCUBATION inactive; negative | [9] inactive; negative | Test System: AMES SALMONELLA TYPHIMURIUM, Strain/Indicator: TA1535, Metabolic Activation: HAMSTER, LIVER, S-9, AROCLOR 1254 (30%), Method: PREINCUBATION inactive; negative | [10] inactive; negative | [11] inactive; negative | Test System: AMES SALMONELLA TYPHIMURIUM, Strain/Indicator: TA1535, Metabolic Activation: RAT, LIVER, S-9, AROCLOR 1254 (30%), Method: PREINCUBATION inactive; negative

CC(Cl)CCCC(Cl)CCCC(Cl)CCCC(Cl)CCCC(Cl)CCCC(Cl)CCCl (centres undefined)
inactive: End Point: IN VITRO CHROMOSOMAL ABERRATIONS, Test System: CHO CELLS, Metabolic Activation: RAT, LIVER, S-9, AROCLOR 1254 inactive; negative; oily droplets formed at all doses | Test System: AMES SALMONELLA TYPHIMURIUM, Strain/Indicator: TA98, Metabolic Activation: HAMSTER, LIVER, S-9, AROCLOR 1254, Method: PREINCUBATION inactive; negative | [4] inactive; negative | Test System: AMES SALMONELLA TYPHIMURIUM, Strain/Indicator: TA98, Metabolic Activation: RAT, LIVER, S-9, AROCLOR 1254, Method: PREINCUBATION inactive; negative | Test System: AMES SALMONELLA TYPHIMURIUM, Strain/Indicator: TA100, Metabolic Activation: HAMSTER, LIVER, S-9, AROCLOR 1254, Method: PREINCUBATION inactive; negative | [7] inactive; negative | Test System: AMES SALMONELLA TYPHIMURIUM, Strain/Indicator: TA100, Metabolic Activation: RAT, LIVER, S-9, AROCLOR 1254, Method: PREINCUBATION inactive; negative | Test System: AMES SALMONELLA TYPHIMURIUM, Strain/Indicator: TA1535, Metabolic Activation: HAMSTER, LIVER, S-9, AROCLOR 1254, Method: PREINCUBATION inactive; negative | [10] inactive; negative | Test System: AMES SALMONELLA TYPHIMURIUM, Strain/Indicator: TA1535, Metabolic Activation: RAT, LIVER, S-9, AROCLOR 1254, Method: PREINCUBATION inactive; negative | Test System: AMES SALMONELLA TYPHIMURIUM, Strain/Indicator: TA1537, Metabolic Activation: HAMSTER, LIVER, S-9, AROCLOR 1254, Method: PREINCUBATION inactive; negative | [12] inactive; negative | Test System: AMES SALMONELLA TYPHIMURIUM, Strain/Indicator: TA1537, Metabolic Activation: RAT, LIVER, S-9, AROCLOR 1254, Method: PREINCUBATION inactive; negative
active: End Point: IN VITRO CHROMOSOMAL ABERRATIONS, Test System: CHO CELLS, Metabolic Activation: NONE active; positive; oily droplets formed at all doses

O[C@H]([C@H](O)[C@@H](O)CBr)[C@H](O)CBr
active: [6] active; positive | [7] active; positive | [8] active; positive | [9] active; positive | [10] active; positive | [11] active; positive
inactive: [3] inactive; negative | [4] inactive; negative | [5] inactive; negative | Test System: AMES SALMONELLA TYPHIMURIUM, Strain/Indicator: TA1537, Metabolic Activation: HAMSTER, LIVER, S-9, AROCLOR 1254 (10%), Method: PREINCUBATION inactive; negative | [12] inactive; negative | Test System: AMES SALMONELLA TYPHIMURIUM, Strain/Indicator: TA1537, Metabolic Activation: RAT, LIVER, S-9, AROCLOR 1254 (10%), Method: PREINCUBATION inactive; negative

Fc1c(F)c(F)c2ncccc2c1F
active: Test System: AMES SALMONELLA TYPHIMURIUM, Strain/Indicator: TA100, Metabolic Activation: RAT LIVER S-9, PHENOBARBITAL AND 5,6-BENZOFLAVONE, Method: PREINCUBATION active; positive

CN1CCN(c2ccc3nc(CCCCCCc4ccc5nc(-c6ccc(N(CCCl)CCCl)cc6)[nH]c5c4)[nH]c3c2)CC1
inactive: [13] inactive; negative | [1] inactive; negative | [2] inactive; negative

CC(=O)[C@]1(O)Cc2c(O)c3c(c(O)c2[C@@H](O[C@H]2C[C@H](N)[C@H](O)[C@H](C)O2)C1)C(=O)c1ccccc1C3=O
active: Test System: AMES SALMONELLA TYPHIMURIUM, Strain/Indicator: GW257, Metabolic Activation: NONE, Method: STANDARD PLATE active; positive | [13] active; positive | [1] active; positive | Test System: AMES SALMONELLA TYPHIMURIUM, Strain/Indicator: TA1538, Metabolic Activation: NONE, Method: STANDARD PLATE active; positive | Test System: CHINESE HAMSTER V-79, Strain/Indicator: V-79/6-THIOGUANINE, Metabolic Activation: NONE, Method: SUSPENSION/PLATE active; positive | Test System: UDS RAT HEPATOCYTES, Strain/Indicator: THY INCORP, Metabolic Activation: NONE, Method: AUTOMATIC COLONY COUNTER active; positive
